Consider 58 molecules from article PMC3865801 (Journal of Medicinal Chemistry, 2013).

Entries after “also recorded” stand apart in the source; their conditions may differ.

The target in the assay is T1, purified recombinant perforin (Mus musculus, UniProt P10820).
T1 sequence (P10820 21-554): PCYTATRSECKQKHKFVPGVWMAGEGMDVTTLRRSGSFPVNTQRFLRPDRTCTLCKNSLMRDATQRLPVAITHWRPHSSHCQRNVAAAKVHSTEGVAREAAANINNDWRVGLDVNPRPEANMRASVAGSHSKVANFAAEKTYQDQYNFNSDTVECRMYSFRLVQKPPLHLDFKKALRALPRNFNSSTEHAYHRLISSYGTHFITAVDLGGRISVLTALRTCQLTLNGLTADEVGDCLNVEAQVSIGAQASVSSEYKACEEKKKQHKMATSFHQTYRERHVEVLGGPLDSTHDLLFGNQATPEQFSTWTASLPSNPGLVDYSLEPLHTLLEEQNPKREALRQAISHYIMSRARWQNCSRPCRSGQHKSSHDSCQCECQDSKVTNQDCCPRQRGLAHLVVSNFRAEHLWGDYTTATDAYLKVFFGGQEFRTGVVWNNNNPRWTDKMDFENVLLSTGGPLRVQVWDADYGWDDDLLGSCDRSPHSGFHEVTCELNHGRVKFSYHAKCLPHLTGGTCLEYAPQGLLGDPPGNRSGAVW
Put plainly: cell-based. The format is cell-based. The note with it: lysis of Jurkat cells by purified recombinant perforin, 51Cr release, 0.1% BSA, average of at least three determinations; for IC50: read-out: inhibition of Jurkat cell lysis, IC50.

By IC50 is commonly meant the concentration at which inhibition is half-maximal.

Protocol: The ability of the compounds to inhibit the lysis of nucleated (Jurkat T lymphoma) cells in the presence of 0.1% BSA was measured by release of ^51Cr label. Jurkat target cells were labeled by incubation in medium with 100 μCi ^51Cr for 1 h. The cells were then washed three times to remove unincorporated isotope and resuspended at 1 × 10^5 cells per milliliter in RPMI buffer supplemented with 0.1% BSA. […] Each data point was performed in triplicate, and an IC50 was calculated from the range of concentrations described above.

For `O=C1NC(=S)N/C1=C/c1ccc(-c2ccccc2)s1` [compound 43], the “inhibition of Jurkat cell lysis, IC50” value was “no detectable activity” and the IC50 was over 20 µM.

For `O=C1NC(=S)N/C1=C/c1ccc(-c2ccccc2Cl)s1` [compound 44], the IC50 is over 20 µM.

In the case of `O=C1NC(=S)N/C1=C/c1ccc(-c2cccc(Cl)c2)s1` [compound 45], the IC50 amounted to 7.19 µM.

Take `O=C1NC(=S)N/C1=C/c1ccc(-c2ccc(Cl)cc2)s1` [compound 46]: the IC50 is 5.22 µM.

In the case of `O=C1NC(=S)N/C1=C/c1ccc(-c2cccc(F)c2)s1` [compound 47], the IC50 was 10.8 µM.

As to `O=C1NC(=S)N/C1=C/c1ccc(-c2ccc(F)cc2)s1` [compound 48], the IC50 was 6.69 µM.

In the case of `O=C1NC(=S)N/C1=C/c1ccc(-c2ccc(F)c(F)c2)s1` [compound 49], the IC50 came to 4.59 µM.

On to `O=C1NC(=S)N/C1=C/c1ccc(-c2cccc(C(F)(F)F)c2)s1` [compound 50], for which the half-maximal inhibitory concentration (IC50) turned out to be 5.66 µM.

With `O=C1NC(=S)N/C1=C/c1ccc(-c2ccc(C(F)(F)F)cc2)s1` [compound 51], the IC50 came to 4.66 µM.

With `N#Cc1cccc(-c2ccc(/C=C3/NC(=S)NC3=O)s2)c1` [compound 52], the IC50 came out at 9.68 µM.

Consider `O=C1NC(=S)N/C1=C/c1ccc(-c2ccc(O)cc2)s1` [compound 53], for which the IC50 was 7.72 µM.

On to `O=C1NC(=S)N/C1=C/c1ccc(-c2ccc(Cl)c(C(F)(F)F)c2)s1` [compound 54], for which the IC50 came out at 3.09 µM.

For `O=C1NC(=S)N/C1=C/c1ccc(-c2ccc(Br)cc2)s1` [compound 55], the IC50 amounted to 1.69 µM.

As to `CSc1ccc(-c2ccc(/C=C3/NC(=S)NC3=O)s2)cc1` [compound 56], the IC50 was determined as 1.15 µM.

With `CC(=O)c1ccc(-c2ccc(/C=C3/NC(=S)NC3=O)s2)cc1` [compound 57], the IC50 is 1.67 µM.

Consider `CC(=O)OCc1ccc(-c2ccc(/C=C3/NC(=S)NC3=O)s2)cc1` [compound 58, (E,Z)-4-(5-((5-Oxo-2-thioxoimidazolidin-4-ylidene)methyl)thiophen-2-yl)benzyl Acetate], for which the IC50 was 3.04 µM.

Consider `COC(=O)c1ccc(-c2ccc(/C=C3/NC(=S)NC3=O)s2)cc1` [compound 59], for which the IC50 was determined as 1.62 µM.

For `NC(=O)c1cccc(-c2ccc(/C=C3/NC(=S)NC3=O)s2)c1` [compound 60], the IC50 was 0.79 µM.

Take `NC(=O)c1ccc(-c2ccc(/C=C3/NC(=S)NC3=O)s2)cc1` [compound 61]: the half-maximal inhibitory concentration (IC50) was 1.56 µM.

For the molecule `COC(=O)c1ccc(-c2ccc(/C=C3/NC(=S)NC3=O)s2)cc1C` [compound 62], the IC50 was 3.03 µM.

With `CS(=O)(=O)c1ccc(-c2ccc(/C=C3/NC(=S)NC3=O)s2)cc1` [compound 63], the IC50 is 13.8 µM.

For the molecule `CS(=O)(=O)Nc1ccc(-c2ccc(/C=C3/NC(=S)NC3=O)s2)cc1` [compound 64], the IC50 worked out at 7.7 µM.

Regarding `O=C1NC(=S)N/C1=C/c1ccc(-c2cccnc2)s1` [compound 65], the IC50 came to 12.9 µM.

In the case of `O=C1NC(=S)N/C1=C/c1ccc(-c2ccncc2)s1` [compound 66], the IC50 turned out to be 10.1 µM.

Regarding `CNC(=O)c1ccc(-c2ccc(/C=C3/NC(=S)NC3=O)s2)cc1` [compound 67, (E,Z)-N-Methyl-4-(5-((5-oxo-2-thioxoimidazolidin-4-ylidene)methyl)thiophen-2-yl)benzamide], the IC50 is 4.53 µM.

For the molecule `CN(C)C(=O)c1ccc(-c2ccc(/C=C3/NC(=S)NC3=O)s2)cc1` [compound 68], the IC50 was determined as 6.93 µM.

Regarding `O=C1NC(=S)N/C1=C/c1ccc(-c2ccc(C(=O)N3CCOCC3)cc2)s1` [compound 69], the IC50 was over 20 µM.

Regarding `O=C1NC(=S)N/C1=C/c1ccc(-c2ccc(C(=O)NCCN3CCOCC3)cc2)s1` [compound 70], the IC50 was over 20 µM.

As to `O=C1NC(=S)N/C1=C/c1ccc(-c2ccc(C(=O)NCCCN3CCOCC3)cc2)s1` [compound 71], the half-inhibitory concentration (IC50) amounted to 8.13 µM.

Take `O=C1NC(=S)N/C1=C/c1ccc(-c2ccc(C(=O)NCCO)cc2)s1` [compound 72]: the IC50 turned out to be 3.64 µM.

For `O=C1NC(=S)N/C1=C/c1ccc(-c2ccc(C(=O)NCCCO)cc2)s1` [compound 73], the IC50 was determined as 4.35 µM.

Turning to `CC(O)CNC(=O)c1ccc(-c2ccc(/C=C3/NC(=S)NC3=O)s2)cc1` (centres unmarked) [compound 74], the IC50 turned out to be 6.5 µM.

As for `O=C1NC(=S)N/C1=C/c1ccc(-c2ccc(C(=O)NCC(O)CO)cc2)s1` (centres unmarked) [compound 75], the concentration for half-maximal inhibition (IC50) is 2.44 µM.

For `CCN1Cc2cc(-c3ccc(/C=C4/NC(=S)NC4=O)s3)ccc2C1=O` [compound 120], the IC50 worked out at 0.6 µM.

With `CCCN1Cc2cc(-c3ccc(/C=C4/NC(=S)NC4=O)s3)ccc2C1=O` [compound 121], the IC50 came out at 1.52 µM.

Regarding `CCCCN1Cc2cc(-c3ccc(/C=C4/NC(=S)NC4=O)s3)ccc2C1=O` [compound 122], the IC50 worked out at 1.18 µM.

In the case of `CC(C)N1Cc2cc(-c3ccc(/C=C4/NC(=S)NC4=O)s3)ccc2C1=O` [compound 123], the IC50 came out at 4.42 µM.

Regarding `CC(=O)OCCN1Cc2cc(-c3ccc(/C=C4/NC(=S)NC4=O)s3)ccc2C1=O` [compound 124, (E,Z)-2-(1-Oxo-5-(5-((5-oxo-2-thioxoimidazolidin-4-ylidene)methyl)thiophen-2-yl)isoindolin-2-yl)ethyl Acetate], the 50% inhibitory concentration (IC50) is 1.17 µM.

With `O=C1NC(=S)N/C1=C/c1ccc(-c2ccc3c(c2)CN(CC(O)CO)C3=O)s1` (centres unmarked) [compound 127], the IC50 is 1.26 µM.

As for `CC(=O)N1Cc2cc(-c3ccc(/C=C4/NC(=S)NC4=O)s3)ccc2C1=O` [compound 128], the IC50 was determined as 0.93 µM.

In the case of `O=C1NC(=S)N/C1=C/c1ccc(-c2ccc3c(c2)CN(CCN2CCOCC2)C3=O)s1` [compound 130, (E,Z)-2-(2-Morpholinoethyl)-5-(5-((5-oxo-2-thioxoimidazolidin-4-ylidene)methyl)thiophen-2-yl)isoindolin-1-one], the “inhibition of Jurkat cell lysis, IC50” value is “not reproducible; also recorded: variable”.

On to `CN(C)CCCN1Cc2cc(-c3ccc(/C=C4/NC(=S)NC4=O)s3)ccc2C1=O` [compound 131, (E,Z)-2-(3-(Dimethylamino)propyl)-5-(5-((5-oxo-2-thioxoimidazolidin-4-ylidene)methyl)thiophen-2-yl)isoindolin-1-one], for which the IC50 is over 20 µM.

With `O=C1NC(=S)N/C1=C/c1ccc(-c2ccc3c(c2)CN(CCCN2CCCCC2)C3=O)s1` [compound 132], the IC50 came out at 11.8 µM.

As for `CN1CCN(CCCN2Cc3cc(-c4ccc(/C=C5/NC(=S)NC5=O)s4)ccc3C2=O)CC1` [compound 133], the IC50 was over 20 µM.

On to `O=C1NC(=S)N/C1=C/c1ccc(-c2ccc3c(c2)CN(CCCN2CCCC2)C3=O)s1` [compound 134], for which the IC50 came to 8.93 µM.

`O=C1NC(=S)N/C1=C/c1ccc(-c2ccc3c(c2)C(=O)NC3)s1` [compound 165]: the IC50 was found to be 1.38 µM.

For `CN1Cc2ccc(-c3ccc(/C=C4/NC(=S)NC4=O)s3)cc2C1=O` [compound 166, (E,Z)-2-Methyl-6-(5-((5-oxo-2-thioxoimidazolidin-4-ylidene)methyl)thiophen-2-yl)isoindolin-1-one], the IC50 was determined as 1.89 µM.

Regarding `CN1CCc2cc(-c3ccc(/C=C4/NC(=S)NC4=O)s3)ccc2C1=O` [compound 169], the IC50 came to 2.33 µM.

For `CN1CCc2ccc(-c3ccc(/C=C4/NC(=S)NC4=O)s3)cc2C1=O` [compound 170], the IC50 was 4.76 µM.

As for `CC(=O)c1cn(C)c2ccc(-c3ccc(/C=C4\NC(=S)NC4=O)s3)cc12` [compound 178], the IC50 was determined as 5.3 µM.

For the molecule `O=C1NC(=S)N/C1=C\c1cc(-c2ccc3c(c2)CNC3=O)cs1` [compound 204], the IC50 was determined as 3 µM.

Consider `O=C1NC(=S)N/C1=C/c1ccc(-c2ccc3c(c2)CNC3=O)cc1` [compound 205], for which the IC50 was 5.55 µM.

On to `O=C1NC(=S)N/C1=C\c1cccc(-c2ccc3c(c2)CNC3=O)c1` [compound 206], for which the IC50 worked out at 3.44 µM.

For `O=C1NC(=S)N/C1=C/c1cc2ccc(-c3ccc4c(c3)CNC4=O)cc2[nH]1` [compound 208], the half-maximal inhibitory concentration (IC50) turned out to be 1.58 µM.

As to `O=C1NC(=S)N/C1=C/c1cc2cc(-c3ccc4c(c3)CNC4=O)ccc2[nH]1` [compound 209], the IC50 is 2.5 µM.

For `O=C1NC(=S)N/C1=C/c1cc2ccc(-c3ccc4c(c3)CCNC4=O)cc2[nH]1` [compound 210], the IC50 was 1.66 µM.

With `O=C1NC(=S)N/C1=C/c1cc2cc(-c3ccc4c(c3)CCNC4=O)ccc2[nH]1` [compound 211], the IC50 was determined as 1.45 µM.

As for `O=C1NC(=S)/C(=C/c2ccc3cc(-c4ccc5c(c4)CCNC5=O)ccc3n2)N1` [compound 212], the IC50 amounted to 2.55 µM.
